Results taken from PubChem BioAssay AID248 (DTP/NCI, 2004).
Several values for one entry are separate records, joined by “and”; a condition that tells them apart may be missing. Equal values may be shown once. Toxic doses and inconclusive results are not listed. Rule as the data show it: active = T/C of 150% or more; inactive = T/C below 125%.

System: L1210 leukemia ip in BDF1 mice, survival T/C
Assay: NCI In Vivo Anticancer Drug Screen. Data for tumor model L1210 Leukemia (intraperitoneal) in B6D2F1 (BDF1) mice
Details: endpoint: mean survival time, higher = longer survival
Summary of the method: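 Each compound was tested against a transplantable tumor grown in mice. The endpoint was survival, with treated animals benchmarked against vehicle controls as a simple ratio.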

[1] = dose: 50.0 mg/kg/injection, schedule: Q01DX001 (ip), vehicle: carboxymethylcellulose (CMC)
[2] = dose: 100.0 mg/kg/injection, schedule: Q01DX001 (ip), vehicle: carboxymethylcellulose (CMC)
[3] = dose: 200.0 mg/kg/injection, schedule: Q01DX001 (ip), vehicle: carboxymethylcellulose (CMC)
[4] = dose: 400.0 mg/kg/injection, schedule: Q01DX001 (ip), vehicle: carboxymethylcellulose (CMC)
[5] = dose: 50.0 mg/kg/injection, schedule: Q01DX009 (ip), vehicle: saline with Tween-80
[6] = dose: 100.0 mg/kg/injection, schedule: Q01DX001 (ip), vehicle: saline
[7] = dose: 100.0 mg/kg/injection, schedule: Q01DX009 (ip), vehicle: saline with Tween-80
[8] = dose: 100.0 mg/kg/injection, schedule: Q04DX003 (ip), vehicle: saline with Tween-80
[9] = dose: 200.0 mg/kg/injection, schedule: Q01DX001 (ip), vehicle: saline
[10] = dose: 200.0 mg/kg/injection, schedule: Q01DX009 (ip), vehicle: saline with Tween-80
[11] = dose: 200.0 mg/kg/injection, schedule: Q04DX003 (ip), vehicle: saline with Tween-80
[12] = dose: 50.0 mg/kg/injection, schedule: Q01DX009 (ip), vehicle: Klucel (hydroxypropylcellulose) (HPC)
[13] = dose: 100.0 mg/kg/injection, schedule: Q04DX003 (ip), vehicle: saline
[14] = dose: 400.0 mg/kg/injection, schedule: Q01DX001 (ip), vehicle: saline
[15] = dose: 100.0 mg/kg/injection, schedule: Q04DX003 (ip), vehicle: Klucel (hydroxypropylcellulose) (HPC)
[16] = dose: 200.0 mg/kg/injection, schedule: Q04DX003 (ip), vehicle: Klucel (hydroxypropylcellulose) (HPC)
[17] = dose: 400.0 mg/kg/injection, schedule: Q04DX003 (ip), vehicle: Klucel (hydroxypropylcellulose) (HPC)
[18] = dose: 100.0 mg/kg/injection, schedule: Q01DX009 (ip), vehicle: Klucel (hydroxypropylcellulose) (HPC)
[19] = dose: 200.0 mg/kg/injection, schedule: Q01DX009 (ip), vehicle: Klucel (hydroxypropylcellulose) (HPC)
[20] = dose: 400.0 mg/kg/injection, schedule: Q01DX009 (ip), vehicle: saline with Tween-80
[21] = dose: 400.0 mg/kg/injection, schedule: Q04DX003 (ip), vehicle: saline with Tween-80

Measured: T/C

CC1CC(C)(C)S(=O)(=O)O1 (stereo not given)
inactive: [1] 107 % of control | [2] 98 % of control | [3] 109 % of control | [4] 102 % of control

CN(C)Cc1ccncc1
inactive: dose: 50.0 mg/kg/injection, schedule: Q01DX001 (ip), vehicle: saline 101 % of control | [5] 93 % of control | dose: 50.0 mg/kg/injection, schedule: Q04DX003 (ip), vehicle: saline with Tween-80 92 % of control | [6] 101 % of control | [7] 101 % of control | [8] 92 % of control | [9] 101 % of control | [10] 96 % of control | [11] 95 % of control

C[S+](C)C
inactive: dose: 12.0 mg/kg/injection, schedule: Q01DX009 (ip), vehicle: saline 104 % of control | dose: 25.0 mg/kg/injection, schedule: Q01DX009 (ip), vehicle: saline 93 % of control and 100 % of control | dose: 25.0 mg/kg/injection, schedule: Q04DX003 (ip), vehicle: saline 93 % of control | [12] 91 % of control | dose: 50.0 mg/kg/injection, schedule: Q01DX009 (ip), vehicle: saline 100 % of control and 98 % of control | dose: 50.0 mg/kg/injection, schedule: Q04DX003 (ip), vehicle: saline 98 % of control | [6] 96 % of control | dose: 100.0 mg/kg/injection, schedule: Q01DX009 (ip), vehicle: saline 90 % of control | [13] 97 % of control and 88 % of control

CC(=O)N(c1ccccn1)c1ccccn1
inactive: [6] 106 % of control | [13] 97 % of control | [9] 104 % of control | dose: 200.0 mg/kg/injection, schedule: Q04DX003 (ip), vehicle: saline 105 % of control

CC(C)CNC(=O)Nc1ccc(Cl)c(Cl)c1
inactive: [6] 97 % of control | [9] 95 % of control | [14] 95 % of control

CC12CCC3(CCC4(C)C(=C3C1)CCC1C3(C)CCC(OC5OC(CO)C(O)C(O)C5O)C(C)(C)C3CCC14C)C(=O)O2 (stereo not given)
inactive: [5] 104 % of control | [7] 108 % of control | [10] 114 % of control

O=C(Nc1ccccc1C(F)(F)F)c1ccccc1Cl
inactive: dose: 100.0 mg/kg/injection, schedule: Q01DX009 (ip), vehicle: acetone 98 % of control | dose: 200.0 mg/kg/injection, schedule: Q01DX009 (ip), vehicle: acetone 93 % of control | dose: 400.0 mg/kg/injection, schedule: Q01DX009 (ip), vehicle: acetone 93 % of control

COc1ccc(/C=N/NC(=O)CNC(=O)Nc2cccc(Cl)c2Cl)cc1
inactive: [5] 93 % of control | [7] 96 % of control

CCC(c1ccc(OC)cc1)C(O)(CC)c1ccc(OC)cc1 (stereo not given)
inactive: [15] 98 % of control | [16] 98 % of control | [17] 102 % of control

Nc1ccc2c(c1)C(=O)c1cc(N)ccc1-2
inactive: [2] 102 % of control | [15] 103 % of control | [3] 102 % of control | [16] 103 % of control | [4] 98 % of control | [17] 108 % of control

O=C(O)C(O)C(F)(F)F (stereo not given)
inactive: dose: 31.0 mg/kg/injection, schedule: Q01DX Z (ip), vehicle: methylcellulose (MC) 102 % of control | dose: 62.5 mg/kg/injection, schedule: Q01DX Z (ip), vehicle: methylcellulose (MC) 96 % of control | dose: 125.0 mg/kg/injection, schedule: Q01DX Z (ip), vehicle: methylcellulose (MC) 100 % of control | dose: 250.0 mg/kg/injection, schedule: Q01DX Z (ip), vehicle: methylcellulose (MC) 97 % of control

C[N+]1(C)CCNC(=O)CC1
inactive: dose: 75.0 mg/kg/injection, schedule: Q01DX001 (ip), vehicle: saline 105 % of control | dose: 150.0 mg/kg/injection, schedule: Q01DX001 (ip), vehicle: saline 94 % of control | dose: 300.0 mg/kg/injection, schedule: Q01DX001 (ip), vehicle: saline 105 % of control

CCCCCCCCCCS
inactive: [2] 114 % of control | [3] 101 % of control

O=C1c2ccccc2C(=O)N1CCc1ccccc1
inactive: [18] 93 % of control | [15] 97 % of control and 101 % of control | [19] 96 % of control | [16] 94 % of control and 97 % of control | dose: 400.0 mg/kg/injection, schedule: Q01DX009 (ip), vehicle: Klucel (hydroxypropylcellulose) (HPC) 95 % of control | [17] 94 % of control and 101 % of control

Cc1cc(CSc2ssc(=S)c2-c2ccccc2)c(CSc2ssc(=S)c2-c2ccccc2)cc1C
inactive: [7] 94 % of control | [8] 112 % of control | [10] 92 % of control | [11] 106 % of control | [20] 96 % of control | [21] 95 % of control

C/C(=N/NC(N)=O)C1CC2CCC1C2 (stereo not given)
inactive: [6] 98 % of control | dose: 100.0 mg/kg/injection, schedule: Q01DX009 (ip), vehicle: gum acacia 102 % of control | dose: 100.0 mg/kg/injection, schedule: Q04DX003 (ip), vehicle: gum acacia 93 % of control | [9] 101 % of control | dose: 200.0 mg/kg/injection, schedule: Q01DX009 (ip), vehicle: gum acacia 94 % of control | dose: 200.0 mg/kg/injection, schedule: Q04DX003 (ip), vehicle: gum acacia 95 % of control | dose: 400.0 mg/kg/injection, schedule: Q04DX003 (ip), vehicle: gum acacia 90 % of control

Cc1ccc(CC2NC(=O)NC2=O)cc1 (stereo not given)
inactive: dose: 25.0 mg/kg/injection, schedule: Q01DX009 (ip), vehicle: saline with Tween-80 102 % of control | [5] 96 % of control | [7] 104 % of control | [10] 96 % of control | [20] 94 % of control

CC(C)(C)N
inactive: dose: 100.0 mg/kg/injection, schedule: Q04DX002 (ip), vehicle: saline 101 % of control | dose: 200.0 mg/kg/injection, schedule: Q04DX002 (ip), vehicle: saline 101 % of control | dose: 400.0 mg/kg/injection, schedule: Q04DX002 (ip), vehicle: saline 97 % of control

CCSC1C(O)C(CO)OC1n1ccc(=O)[nH]c1=O (stereo not given)
inactive: dose: 100.0 mg/kg/injection, schedule: Q01DX005 (ip), vehicle: saline 92 % of control | dose: 200.0 mg/kg/injection, schedule: Q01DX005 (ip), vehicle: saline 101 % of control

CCn1cnc2cc(N=Cc3ccc(N(CCCl)CCCl)cc3Cl)ccc21
inactive: dose: 100.0 mg/kg/injection, schedule: Q04DX002 (ip), vehicle: Klucel (hydroxypropylcellulose) (HPC) 117 % of control | dose: 200.0 mg/kg/injection, schedule: Q04DX002 (ip), vehicle: Klucel (hydroxypropylcellulose) (HPC) 102 % of control | dose: 400.0 mg/kg/injection, schedule: Q04DX002 (ip), vehicle: Klucel (hydroxypropylcellulose) (HPC) 98 % of control

NNC(=O)CC(NN)c1ccccc1O (stereo not given)
inactive: dose: 100.0 mg/kg/injection, schedule: Q04DX002 (ip), vehicle: saline with Tween-80 90 % of control | dose: 200.0 mg/kg/injection, schedule: Q04DX002 (ip), vehicle: saline with Tween-80 100 % of control | dose: 400.0 mg/kg/injection, schedule: Q04DX002 (ip), vehicle: saline with Tween-80 102 % of control

Cc1cc(C)c(F)c(-c2c(N)c(C)cc(C)c2F)c1N
inactive: dose: 50.0 mg/kg/injection, schedule: Q01DX001 (ip), vehicle: Klucel (hydroxypropylcellulose) (HPC) 106 % of control | dose: 100.0 mg/kg/injection, schedule: Q01DX001 (ip), vehicle: Klucel (hydroxypropylcellulose) (HPC) 101 % of control | dose: 200.0 mg/kg/injection, schedule: Q01DX001 (ip), vehicle: Klucel (hydroxypropylcellulose) (HPC) 96 % of control

OC1(C2(O)CCCC2)CCCC1
inactive: [8] 98 % of control | [11] 98 % of control | [21] 95 % of control

CCN1C(=O)c2ccccc2C1=O
inactive: [12] 107 % of control | [6] 96 % of control | [18] 94 % of control | [9] 98 % of control | [19] 89 % of control | [14] 88 % of control

CC(=O)N(C)Nc1ccccc1
inactive: [7] 116 % of control | [8] 91 % of control | [10] 97 % of control | [11] 91 % of control | [20] 90 % of control | [21] 106 % of control

C/[N+]([O-])=N\Nc1c(Cl)cc(Cl)cc1Cl
inactive: [5] 94 % of control | [7] 105 % of control | [10] 102 % of control

O=S(c1cc(Cl)cc(Cl)c1O)c1cc(Cl)cc(Cl)c1O
inactive: [1] 95 % of control | [2] 98 % of control | [3] 101 % of control | [4] 114 % of control
